Data from the kinase profiling compilation of Christmann-Franck et al. (2016).

Tests used:
Test in all cases: KINOMEscan competition binding
Details in all cases: compound 10.0 µM
[1] = biological target: PIP5K1A (human) (UniProt Q99755)
[2] = biological target: TAOK1 (human) (UniProt Q7L7X3)
[3] = biological target: CLK3 (human) (UniProt P49761)
[4] = biological target: PDGFRB (human) (UniProt P09619)
[5] = biological target: PRKD1 (human) (UniProt Q15139)
[6] = test system: FLT3 (human), P36888 [D835H]
[7] = biological target: DAPK2 (human) (UniProt Q9UIK4)
[8] = test system: KIT (human), P10721 [D816V]
[9] = biological target: CSNK1G3 (human) (UniProt Q9Y6M4)
[10] = biological target: CHUK (human) (UniProt O15111)
[11] = biological target: MAP3K5 (human) (UniProt Q99683)
[12] = biological target: DAPK3 (human) (UniProt O43293)
[13] = biological target: MAP4K4 (human) (UniProt O95819)
[14] = biological target: RIPK4 (human) (UniProt P57078)
[15] = biological target: JAK1 JH2 pseudokinase (human) (UniProt P23458)
[16] = biological target: MYLK4 (human) (UniProt Q86YV6)
[17] = biological target: PRKD3 (human) (UniProt O94806)
[18] = biological target: CDK16 (human) (UniProt Q00536)
[19] = biological target: TYK2 JH2 pseudokinase (human) (UniProt P29597)
[20] = test system: FLT3 (human), P36888 [K663Q]
[21] = biological target: CSNK1E (human) (UniProt P49674)
[22] = biological target: MAP2K4 (human) (UniProt P45985)
[23] = biological target: RIOK1 (human) (UniProt Q9BRS2)
[24] = biological target: RPS6KA5 KD2 (human) (UniProt O75582)
[25] = biological target: PIK3CG (human) (UniProt P48736)
[26] = test system: EGFR (human), P00533 [G719S]
[27] = test system: FLT3 (human), P36888 [ITD]
[28] = biological target: STK33 (human) (UniProt Q9BYT3)
[29] = test system: EGFR (human), P00533 [747-751 del / S ins]
[30] = biological target: RPS6KA2 KD2 (human) (UniProt Q15349)
[31] = biological target: STK17A (human) (UniProt Q9UEE5)
[32] = biological target: HIPK1 (human) (UniProt Q86Z02)
[33] = biological target: PIP4K2B (human) (UniProt P78356)
[34] = biological target: MYLK (human) (UniProt Q15746)
[35] = biological target: DMPK (human) (UniProt Q09013)
[36] = biological target: JAK3 JH1 catalytic (human) (UniProt P52333)
[37] = biological target: CLK1 (human) (UniProt P49759)
[38] = test system: KIT (human), P10721 [V559D/T670I]
[39] = biological target: CAMKK1 (human) (UniProt Q8N5S9)
[40] = test system: FLT3 (human), P36888 [N841I]
[41] = biological target: STK17B (human) (UniProt O94768)
[42] = biological target: RPS6KA1 KD2 (human) (UniProt Q15418)

KIT (human), P10721 [V559D/T670I], sequence (P10721 whole entry V559D/T670I, looked up): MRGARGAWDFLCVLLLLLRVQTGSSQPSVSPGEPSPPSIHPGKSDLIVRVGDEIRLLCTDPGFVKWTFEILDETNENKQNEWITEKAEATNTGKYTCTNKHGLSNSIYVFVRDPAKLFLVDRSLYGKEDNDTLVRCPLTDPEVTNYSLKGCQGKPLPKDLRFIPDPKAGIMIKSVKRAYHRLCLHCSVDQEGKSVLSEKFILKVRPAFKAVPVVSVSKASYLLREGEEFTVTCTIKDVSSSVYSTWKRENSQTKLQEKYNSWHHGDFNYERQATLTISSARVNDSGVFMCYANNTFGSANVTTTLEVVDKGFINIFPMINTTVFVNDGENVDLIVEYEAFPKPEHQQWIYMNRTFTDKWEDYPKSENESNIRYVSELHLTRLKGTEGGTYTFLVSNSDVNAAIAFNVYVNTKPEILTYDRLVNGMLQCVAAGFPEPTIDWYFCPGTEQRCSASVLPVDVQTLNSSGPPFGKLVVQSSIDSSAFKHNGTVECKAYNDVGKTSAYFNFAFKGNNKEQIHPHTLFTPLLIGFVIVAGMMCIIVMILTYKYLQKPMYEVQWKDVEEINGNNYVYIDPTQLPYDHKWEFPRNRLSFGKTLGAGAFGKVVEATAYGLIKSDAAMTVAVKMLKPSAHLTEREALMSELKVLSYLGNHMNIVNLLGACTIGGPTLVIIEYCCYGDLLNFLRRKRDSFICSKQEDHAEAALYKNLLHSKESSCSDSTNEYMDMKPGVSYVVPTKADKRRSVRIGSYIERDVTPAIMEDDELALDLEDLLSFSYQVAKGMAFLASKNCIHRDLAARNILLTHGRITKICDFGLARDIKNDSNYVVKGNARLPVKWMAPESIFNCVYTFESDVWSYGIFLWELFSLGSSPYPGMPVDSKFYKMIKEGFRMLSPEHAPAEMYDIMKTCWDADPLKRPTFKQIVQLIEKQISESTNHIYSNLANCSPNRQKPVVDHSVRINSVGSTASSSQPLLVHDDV
RPS6KA2 KD2 (human), sequence (Q15349 whole entry, looked up): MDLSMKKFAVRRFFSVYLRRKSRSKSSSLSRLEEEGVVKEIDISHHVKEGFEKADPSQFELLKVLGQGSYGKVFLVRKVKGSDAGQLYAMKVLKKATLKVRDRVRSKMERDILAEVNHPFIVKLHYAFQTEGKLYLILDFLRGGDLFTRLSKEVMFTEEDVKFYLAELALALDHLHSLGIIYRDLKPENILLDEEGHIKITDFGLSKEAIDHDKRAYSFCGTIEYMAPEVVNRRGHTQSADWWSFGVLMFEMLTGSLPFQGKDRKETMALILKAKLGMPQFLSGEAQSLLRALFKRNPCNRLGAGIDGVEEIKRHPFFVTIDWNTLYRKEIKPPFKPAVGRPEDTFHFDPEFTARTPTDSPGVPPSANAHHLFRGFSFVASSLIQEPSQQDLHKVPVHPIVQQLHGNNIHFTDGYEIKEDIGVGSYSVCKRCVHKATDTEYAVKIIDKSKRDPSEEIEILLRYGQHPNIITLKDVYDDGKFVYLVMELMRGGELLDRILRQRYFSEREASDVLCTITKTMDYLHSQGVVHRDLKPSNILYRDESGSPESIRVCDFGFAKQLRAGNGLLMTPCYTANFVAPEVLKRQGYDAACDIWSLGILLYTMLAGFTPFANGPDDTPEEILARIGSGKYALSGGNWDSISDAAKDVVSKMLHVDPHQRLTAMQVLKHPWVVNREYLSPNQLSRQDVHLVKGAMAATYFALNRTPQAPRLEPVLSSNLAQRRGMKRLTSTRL
MAP4K4 (human), sequence (O95819 whole entry, looked up): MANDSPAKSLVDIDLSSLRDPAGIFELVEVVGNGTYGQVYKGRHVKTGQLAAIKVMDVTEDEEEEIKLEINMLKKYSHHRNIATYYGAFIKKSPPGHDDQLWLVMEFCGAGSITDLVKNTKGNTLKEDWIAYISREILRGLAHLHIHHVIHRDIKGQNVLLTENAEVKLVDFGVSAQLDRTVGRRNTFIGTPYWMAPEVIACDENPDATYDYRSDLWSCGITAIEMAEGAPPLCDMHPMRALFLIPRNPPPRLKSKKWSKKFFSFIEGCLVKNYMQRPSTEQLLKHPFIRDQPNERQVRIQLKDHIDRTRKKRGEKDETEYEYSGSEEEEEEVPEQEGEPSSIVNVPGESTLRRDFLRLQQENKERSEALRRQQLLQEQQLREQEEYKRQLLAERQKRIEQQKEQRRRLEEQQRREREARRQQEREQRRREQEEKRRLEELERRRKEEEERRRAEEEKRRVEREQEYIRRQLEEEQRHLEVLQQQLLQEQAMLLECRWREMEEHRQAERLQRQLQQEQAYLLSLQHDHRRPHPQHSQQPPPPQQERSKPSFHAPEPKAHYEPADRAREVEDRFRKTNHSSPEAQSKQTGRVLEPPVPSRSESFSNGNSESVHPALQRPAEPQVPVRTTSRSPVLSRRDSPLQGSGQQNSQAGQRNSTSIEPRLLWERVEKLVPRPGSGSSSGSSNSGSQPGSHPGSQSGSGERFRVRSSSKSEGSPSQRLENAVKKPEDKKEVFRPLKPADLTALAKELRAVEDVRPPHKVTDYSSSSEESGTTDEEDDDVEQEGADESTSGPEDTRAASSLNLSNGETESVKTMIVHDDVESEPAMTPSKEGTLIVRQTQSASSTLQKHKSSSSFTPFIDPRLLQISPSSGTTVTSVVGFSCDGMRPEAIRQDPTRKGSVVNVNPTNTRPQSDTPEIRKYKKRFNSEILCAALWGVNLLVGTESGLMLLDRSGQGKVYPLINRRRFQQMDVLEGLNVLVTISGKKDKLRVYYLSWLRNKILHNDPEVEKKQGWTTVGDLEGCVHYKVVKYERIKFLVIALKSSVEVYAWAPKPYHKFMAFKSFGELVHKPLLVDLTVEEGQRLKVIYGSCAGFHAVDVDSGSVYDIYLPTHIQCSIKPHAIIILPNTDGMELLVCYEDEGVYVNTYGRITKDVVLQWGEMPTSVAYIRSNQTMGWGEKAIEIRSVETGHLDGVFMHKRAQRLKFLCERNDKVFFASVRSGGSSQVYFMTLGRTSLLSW
RPS6KA5 KD2 (human), sequence (O75582 whole entry, looked up): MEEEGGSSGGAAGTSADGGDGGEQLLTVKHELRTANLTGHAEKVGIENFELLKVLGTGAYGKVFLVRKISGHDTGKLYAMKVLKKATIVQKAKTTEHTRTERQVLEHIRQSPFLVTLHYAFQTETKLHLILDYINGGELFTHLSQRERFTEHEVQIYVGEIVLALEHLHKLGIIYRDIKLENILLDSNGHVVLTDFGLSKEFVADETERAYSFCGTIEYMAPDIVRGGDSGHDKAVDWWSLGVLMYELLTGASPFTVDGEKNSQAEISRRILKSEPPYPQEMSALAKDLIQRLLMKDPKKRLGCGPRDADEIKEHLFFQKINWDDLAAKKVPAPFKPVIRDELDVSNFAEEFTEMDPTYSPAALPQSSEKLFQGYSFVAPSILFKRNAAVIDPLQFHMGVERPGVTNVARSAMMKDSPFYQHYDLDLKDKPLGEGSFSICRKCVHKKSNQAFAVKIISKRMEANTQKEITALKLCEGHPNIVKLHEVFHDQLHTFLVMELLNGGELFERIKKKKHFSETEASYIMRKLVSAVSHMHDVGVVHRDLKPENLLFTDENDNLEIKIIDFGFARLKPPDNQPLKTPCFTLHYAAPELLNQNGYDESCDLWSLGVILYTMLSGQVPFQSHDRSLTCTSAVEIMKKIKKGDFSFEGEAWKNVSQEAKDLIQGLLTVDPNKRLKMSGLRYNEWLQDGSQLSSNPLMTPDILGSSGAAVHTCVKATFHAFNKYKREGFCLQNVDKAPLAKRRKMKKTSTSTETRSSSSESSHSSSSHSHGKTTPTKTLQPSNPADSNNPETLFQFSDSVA
PDGFRB (human), sequence (P09619 whole entry, looked up): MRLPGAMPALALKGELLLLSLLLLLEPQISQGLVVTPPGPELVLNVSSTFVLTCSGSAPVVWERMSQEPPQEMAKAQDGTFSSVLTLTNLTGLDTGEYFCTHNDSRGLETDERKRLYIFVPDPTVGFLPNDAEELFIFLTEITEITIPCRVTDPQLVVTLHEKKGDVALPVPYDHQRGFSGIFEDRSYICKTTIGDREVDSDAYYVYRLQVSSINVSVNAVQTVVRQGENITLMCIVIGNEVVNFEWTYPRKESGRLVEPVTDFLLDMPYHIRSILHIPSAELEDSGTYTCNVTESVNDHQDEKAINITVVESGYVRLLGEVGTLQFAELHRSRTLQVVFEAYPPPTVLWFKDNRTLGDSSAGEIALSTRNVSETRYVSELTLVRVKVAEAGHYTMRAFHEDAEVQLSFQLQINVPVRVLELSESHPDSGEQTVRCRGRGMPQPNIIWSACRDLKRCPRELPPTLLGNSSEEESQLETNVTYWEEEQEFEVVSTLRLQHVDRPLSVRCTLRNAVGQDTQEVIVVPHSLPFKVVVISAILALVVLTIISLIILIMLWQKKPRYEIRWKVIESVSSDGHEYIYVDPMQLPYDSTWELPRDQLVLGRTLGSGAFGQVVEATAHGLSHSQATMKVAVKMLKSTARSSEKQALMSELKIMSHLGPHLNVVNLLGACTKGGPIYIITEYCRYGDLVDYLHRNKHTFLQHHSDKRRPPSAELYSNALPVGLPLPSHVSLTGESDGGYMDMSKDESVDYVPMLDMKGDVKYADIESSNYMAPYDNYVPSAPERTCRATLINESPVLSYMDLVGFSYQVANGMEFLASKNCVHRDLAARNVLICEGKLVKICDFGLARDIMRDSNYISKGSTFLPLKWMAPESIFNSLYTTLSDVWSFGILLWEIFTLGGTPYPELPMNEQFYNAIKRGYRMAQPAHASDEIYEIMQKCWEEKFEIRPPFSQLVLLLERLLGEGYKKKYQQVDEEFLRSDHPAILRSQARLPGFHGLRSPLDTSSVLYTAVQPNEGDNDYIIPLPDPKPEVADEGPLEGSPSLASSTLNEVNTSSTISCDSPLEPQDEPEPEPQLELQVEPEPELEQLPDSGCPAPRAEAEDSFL
KIT (human), P10721 [D816V], sequence (P10721 whole entry D816V, looked up): as the sequence (P10721 whole entry V559D/T670I, looked up) above, with D559V, I670T, D816V counted along it

SMILES: CN1C(=O)c2ccccc2N(C)c2nc(Nc3ccc(N4CCC(O)CC4)cc3)ncc21
- kinase still bound, per cent of control [1]: 100%
- kinase still bound, per cent of control [2]: 0.9%
- kinase still bound, per cent of control [3]: 97%
- kinase still bound, per cent of control [4]: 61%
- kinase still bound, per cent of control [5]: 98%
- kinase still bound, per cent of control [6]: 28%
- kinase still bound, per cent of control [7]: 100%
- kinase still bound, per cent of control [8]: 69%
- kinase still bound, per cent of control [9]: 67%
- kinase still bound, per cent of control [10]: 79%
- kinase still bound, per cent of control [11]: 100%
- kinase still bound, per cent of control [12]: 100%
- kinase still bound, per cent of control [13]: 85%
- kinase still bound, per cent of control [14]: 61%
- kinase still bound, per cent of control [15]: 4.8%
- kinase still bound, per cent of control [16]: 100%
- kinase still bound, per cent of control [17]: 69%
- kinase still bound, per cent of control [18]: 100%
- kinase still bound, per cent of control [19]: 71%
- kinase still bound, per cent of control [20]: 85%
- kinase still bound, per cent of control [21]: 100%
- kinase still bound, per cent of control [22]: 74%
- kinase still bound, per cent of control [23]: 90%
- kinase still bound, per cent of control [24]: 100%
- kinase still bound, per cent of control [25]: 4.2%
- kinase still bound, per cent of control [26]: 100%
- kinase still bound, per cent of control [27]: 52%
- kinase still bound, per cent of control [28]: 75%
- kinase still bound, per cent of control [29]: 100%
- kinase still bound, per cent of control [30]: 91%
- kinase still bound, per cent of control [31]: 100%
- kinase still bound, per cent of control [32]: 95%
- kinase still bound, per cent of control [33]: 75%
- kinase still bound, per cent of control [34]: 63%
- kinase still bound, per cent of control [35]: 100%
- kinase still bound, per cent of control [36]: 93%
- kinase still bound, per cent of control [37]: 75%
- kinase still bound, per cent of control [38]: 73%
- kinase still bound, per cent of control [39]: 98%
- kinase still bound, per cent of control [40]: 80%
- kinase still bound, per cent of control [41]: 79%
- kinase still bound, per cent of control [42]: 45%
